Measurements taken from patent US8188059B2, “Compounds and methods for modulating expression of GCGR” (Isis Pharmaceuticals, Inc., priority 2006, dated 2012).

Columns and labels:
Assay type in all cases: in vivo, mouse
[1] = Total and full-length antisense compound concentrations in liver and kidney (Example 4, Table 42); settings: C57/BL6 mice; single i.p. dose; 48 h; dose not given
Method: (§1) Eight-week old male C57/BL6 mice (Jackson Laboratory, Bar Harbor, Me.) were administered a single dose of GCGR oligonucleotide by intraperitoneal injection at a concentration of […]. Each dose group consisted of four animals. Shown in Table 31 are the sequences, motifs and conjugates of the GCGR antisense compounds used in this study. Bolded residues indicate 2′-O-methoxyethyl (2′-MOE) moieties. All compounds comprise phosphorothioate internucleoside linkages throughout and each cytosine is replaced with 5-methylcytosine. ISIS 386626, ISIS 386627 and ISIS 386628 further comprise a C16 conjugate group attached to the 2′-O position of the sugar via a diamide linkage (2′-OCH2C(═O)N(H)(CH2)4N(H)C(═O)—(CH2)15CH3). GCGR antisense compounds target published GCGR sequences, including Genbank® Accession No. BC031885.1 (SEQ ID NO: 7).
(§2) Mice were sacrificed 48 hours following injection to determine serum transaminase levels (Table 32); liver, white adipose tissue (WAT), spleen and kidney weight (Table 33); cholesterol, triglyceride and glucose levels (Table 34); GCGR mRNA levels (Tables 35-41); and full-length and total oligonucleotide concentration in liver and kidney (Table 42). Endpoints were assessed using methods described herein and well known to those of ordinary skill in the art. Data is included from a pre-treatment bleed (Pre-Bleed) and post-treatment bleed (Post-Bleed).
Treatment with the 2-10-2 MOE gapmers led to a significant dose-dependent decrease in GCGR mRNA expression. […] To determine whether the observed increase in efficiency with the short antisense compounds is due to an increase in antisense compound accumulation, full-length and total antisense compound concentration in the liver and kidney were determined.

[2] = Organ weights: liver, white adipose tissue, spleen, kidney (Example 4, Table 33); settings: 48 h, C57/BL6 mice
Method: as §1, §2

GCGR mRNA = GCGR mRNA levels in liver of C57/BL6 mice, single i.p. dose (Example 4, Tables 35-41); settings: 48 h, Table 35 comparison ISIS 148364 & ISIS 386626
Method: as §1, §2
To determine whether the phenotypic changes shown above correlated with a decrease in GCGR mRNA, treated animals were evaluated for levels of target mRNA in liver by real time PCR according to methods described herein. Tables 35 to 41 show results from direct comparisons of the antisense compounds targeting GCGR nucleic acid for their effect on target expression. Results are expressed as percent of saline control.

[3] = ALT & AST levels, C57/BL6 mice (Example 4, Table 32); settings: for ALT Pre-Bleed / AST Pre-Bleed: pre-treatment bleed; for ALT Post-Bleed / AST Post-Bleed: 48 hours following injection
Method: as §1, §2

[4] = Triglyceride, cholesterol and glucose levels, pre-bleed and post-bleed (Example 4, Table 34); design: TRIG Pre-Bleed / TRIG Post-Bleed / CHOL Pre-Bleed / CHOL Post-Bleed / Glucose Pre-Bleed / Glucose Post-Bleed: unit not given here; settings: C57/BL6 mice; for CHOL Pre-Bleed / Glucose Pre-Bleed / TRIG Pre-Bleed: pre-treatment bleed; for CHOL Post-Bleed / Glucose Post-Bleed / TRIG Post-Bleed: post-treatment bleed, 48 h
Method: as §1, §2

In the case of “386626 (antisense GCTTCTCCATCATA; chemistry not fully specified) [compound 386626]”, the “Full-length antisense compound concentration, Kidney” value [1] is reported as 355 µg/g, the “Full-length antisense compound concentration, Liver” value [1] is reported as 125 µg/g and the “Total antisense compound concentration, Kidney” value [1] is reported as 757 µg/g. For the same substance, the “Total antisense compound concentration, Liver” value [1] was 274 µg/g, the “Organ weight: Kidney” value ([2]; 6.25 mg/kg single i.p.) was 100 % saline control and the “Organ weight: Liver” value ([2]; 6.25 mg/kg single i.p.) was 100 % saline control. For the same substance, the “Organ weight: Spleen” value ([2]; 6.25 mg/kg single i.p.) was 95 % saline control, the “Organ weight: WAT” value ([2]; 6.25 mg/kg single i.p.) was 90 % saline control and the “Organ weight: Kidney” value ([2]; 12.5 mg/kg single i.p.) was 97 % saline control. For the same substance, the “Organ weight: Liver” value ([2]; 12.5 mg/kg single i.p.) was 96 % saline control, the “Organ weight: Spleen” value ([2]; 12.5 mg/kg single i.p.) was 114 % saline control and the “Organ weight: WAT” value ([2]; 12.5 mg/kg single i.p.) was 73 % saline control. For the same substance, the “Organ weight: Kidney” value ([2]; 25 mg/kg single i.p.) was 103 % saline control, the “Organ weight: Liver” value ([2]; 25 mg/kg single i.p.) was 109 % saline control and the “Organ weight: Spleen” value ([2]; 25 mg/kg single i.p.) was 120 % saline control. For the same substance, the “Organ weight: WAT” value ([2]; 25 mg/kg single i.p.) was 97 % saline control, the “Organ weight: Kidney” value ([2]; 50 mg/kg single i.p.) was 104 % saline control and the “Organ weight: Liver” value ([2]; 50 mg/kg single i.p.) was 112 % saline control. For the same substance, the “Organ weight: Spleen” value ([2]; 50 mg/kg single i.p.) was 130 % saline control, the “Organ weight: WAT” value ([2]; 50 mg/kg single i.p.) was 77 % saline control and the “GCGR mRNA levels in liver” value (GCGR mRNA; 6.25 mg/kg single i.p.) was 7% of saline control. For the same substance, the “GCGR mRNA levels in liver” value (GCGR mRNA; 12.5 mg/kg single i.p.) was 3% of saline control, the “GCGR mRNA levels in liver” value (GCGR mRNA; 25 mg/kg single i.p.) was 8% of saline control and the “GCGR mRNA levels in liver” value (GCGR mRNA; 50 mg/kg single i.p.) was 0% of saline control. The “ALT Pre-Bleed” value ([3]; 6.25 mg/kg dose group) was 26 IU/L, the “AST Pre-Bleed” value ([3]; 6.25 mg/kg dose group) was 46 IU/L and the “ALT Pre-Bleed” value ([3]; 12.5 mg/kg dose group) was 28 IU/L. For the same substance, the “AST Pre-Bleed” value ([3]; 12.5 mg/kg dose group) was 44 IU/L, the “ALT Pre-Bleed” value ([3]; 25 mg/kg dose group) was 30 IU/L and the “AST Pre-Bleed” value ([3]; 25 mg/kg dose group) was 44 IU/L. The “ALT Pre-Bleed” value ([3]; 50 mg/kg dose group) was 28 IU/L, the “AST Pre-Bleed” value ([3]; 50 mg/kg dose group) was 48 IU/L and the “ALT Post-Bleed” value ([3]; single i.p. dose 6.25 mg/kg) was 42 IU/L. For the same substance, the “AST Post-Bleed” value ([3]; single i.p. dose 6.25 mg/kg) was 69 IU/L, the “ALT Post-Bleed” value ([3]; single i.p. dose 12.5 mg/kg) was 34 IU/L and the “AST Post-Bleed” value ([3]; single i.p. dose 12.5 mg/kg) was 90 IU/L. The “ALT Post-Bleed” value ([3]; single i.p. dose 25 mg/kg) was 36 IU/L, the “AST Post-Bleed” value ([3]; single i.p. dose 25 mg/kg) was 92 IU/L and the “ALT Post-Bleed” value ([3]; single i.p. dose 50 mg/kg) was 40 IU/L. The “AST Post-Bleed” value ([3]; single i.p. dose 50 mg/kg) was 120 IU/L, the “CHOL Pre-Bleed” value ([4]; 6.25 mg/kg group) was 85 and the “Glucose Pre-Bleed” value ([4]; 6.25 mg/kg group) was 222. The “TRIG Pre-Bleed” value ([4]; 6.25 mg/kg group) was 86, the “CHOL Post-Bleed” value ([4]; 6.25 mg/kg single i.p.) was 90 and the “Glucose Post-Bleed” value ([4]; 6.25 mg/kg single i.p.) was 221. For the same substance, the “TRIG Post-Bleed” value ([4]; 6.25 mg/kg single i.p.) was 162, the “CHOL Pre-Bleed” value ([4]; 12.5 mg/kg group) was 82 and the “Glucose Pre-Bleed” value ([4]; 12.5 mg/kg group) was 232. The “TRIG Pre-Bleed” value ([4]; 12.5 mg/kg group) was 100, the “CHOL Post-Bleed” value ([4]; 12.5 mg/kg single i.p.) was 76 and the “Glucose Post-Bleed” value ([4]; 12.5 mg/kg single i.p.) was 185. The “TRIG Post-Bleed” value ([4]; 12.5 mg/kg single i.p.) was 148, the “CHOL Pre-Bleed” value ([4]; 25 mg/kg group) was 87 and the “Glucose Pre-Bleed” value ([4]; 25 mg/kg group) was 235. For the same substance, the “TRIG Pre-Bleed” value ([4]; 25 mg/kg group) was 100, the “CHOL Post-Bleed” value ([4]; 25 mg/kg single i.p.) was 72 and the “Glucose Post-Bleed” value ([4]; 25 mg/kg single i.p.) was 186. For the same substance, the “TRIG Post-Bleed” value ([4]; 25 mg/kg single i.p.) was 187, the “CHOL Pre-Bleed” value ([4]; 50 mg/kg group) was 79 and the “Glucose Pre-Bleed” value ([4]; 50 mg/kg group) was 239. For the same substance, the “TRIG Pre-Bleed” value ([4]; 50 mg/kg group) was 87, the “CHOL Post-Bleed” value ([4]; 50 mg/kg single i.p.) was 57 and the “Glucose Post-Bleed” value ([4]; 50 mg/kg single i.p.) was 179. For the same substance, the “TRIG Post-Bleed” value ([4]; 50 mg/kg single i.p.) was 163.
